# Assay results: patent publication US20240174624A1, “CHIRAL N-(1,3,4-OXADIAZOLE-2-YL)PHENYL CARBOXYLIC ACID AMIDES AND THEIR USE AS HERBICIDES” (Bayer Aktiengesellschaft, priority 2021, published 2024)
# Legend:
# ECHCG [1] = assay: Pre-emergence herbicidal action; format: in vivo, Echinochloa crus-galli; conditions: scored after 3 weeks
# Text: (§1) Seeds of monocotyledonous and dicotyledonous weed plants and crop plants are laid out in sandy loam soil in wood-fibre pots and covered with soil. The compounds of the invention, formulated in the form of wettable powders (WP) or as emulsion concentrates (EC), are then applied to the surface of the covering soil in the form of an aqueous suspension or emulsion at a water application rate equivalent to 600 to 800 l/ha, with addition of 0.2% wetting agent. After the treatment, the pots are placed in a greenhouse and kept under good growth conditions for the trial plants. The damage to the test plants is scored visually after a test period of 3 weeks by comparison with untreated controls (herbicidal activity in percent (%): 100% activity=the plants have died, 0% activity=like control plants). […] The tables below illustrate, in an illustrative manner, the post-emergence herbicidal action of the compounds of the invention, the herbicidal activity being stated in percent.
# AMARE [2] = assay: Post-emergence herbicidal action; format: in vivo, Amaranthus retroflexus; conditions: assessed after about 3 weeks
# Experimental: (§2) Seeds of monocotyledonous and dicotyledonous weed and crop plants are laid out in sandy loam soil in wood-fibre pots, covered with soil and cultivated in a greenhouse under good growth conditions. 2 to 3 weeks after sowing, the test plants are treated at the one-leaf stage. The compounds of the invention, formulated in the form of wettable powders (WP) or as emulsion concentrates (EC), are then sprayed onto the green parts of the plants in the form of an aqueous suspension or emulsion at a water application rate equating to 600 to 800 l/ha, with addition of 0.2% wetting agent. After the test plants have been left to stand in the greenhouse under optimal growth conditions for about 3 weeks, the action of the preparations is assessed visually in comparison to untreated controls (herbicidal action in percent (%): 100% activity=the plants have died, 0% activity=like control plants). […] The tables below illustrate, in an illustrative manner, the post-emergence herbicidal action of the compounds of the invention, the herbicidal activity being stated in percent.
# POLCO = assay: Pre-emergence herbicidal action; format: in vivo, Polygonum convolvulus; conditions: 320 g a.i./ha, comparative experiment
# Text: as §1, with “percent. In the experiments that follow, the herbicidal action of the compounds of the invention and that of the corresponding known racemic compounds closest from WO2012126932 and WO2018202535 were compared under the above-specified conditions by the pre-emergence and post-emergence method. The example numbers given in the tables relate to the compounds disclosed in the respective documents.” for “percent.”
# CYPES [3] = assay: Post-emergence herbicidal action; format: in vivo, Cyperus esculentus; conditions: 20 g a.i./ha, comparative experiment
# Experimental: as §2, with “percent. In the experiments that follow, the herbicidal action of the compounds of the invention and that of the corresponding known racemic compounds closest from WO2012126932 and WO2018202535 were compared under the above-specified conditions by the pre-emergence and post-emergence method. […]” for “percent.”
# SETVI [4] = assay: Pre-emergence herbicidal action; format: in vivo, Setaria viridis; conditions: for Pre-emergence action against SETVI: scored after 3 weeks
# Text: as §1, with “percent. In the experiments that follow, the herbicidal action of the compounds of the invention and that of the corresponding known racemic compounds closest from WO2012126932 and WO2018202535 were compared under the above-specified conditions by the pre-emergence and post-emergence method. The example numbers given in the tables relate to the compounds disclosed in the respective documents.” for “percent.”
# VERPE [5] = assay: Post-emergence herbicidal action; format: in vivo, Veronica persica
# Experimental: as §2, with “percent. In the experiments that follow, the herbicidal action of the compounds of the invention and that of the corresponding known racemic compounds closest from WO2012126932 and WO2018202535 were compared under the above-specified conditions by the pre-emergence and post-emergence method. The example numbers given in the tables relate to the compounds disclosed in the respective documents.” for “percent.”
# ZEAMX = assay: Pre-emergence damage to crop plants; format: in vivo, Zea mays; conditions: 320 g a.i./ha, comparative experiment
# Text: as §1, with “percent. In the experiments that follow, the herbicidal action of the compounds of the invention and that of the corresponding known racemic compounds closest from WO2012126932 and WO2018202535 were compared under the above-specified conditions by the pre-emergence and post-emergence method. The example numbers given in the tables relate to the compounds disclosed in the respective documents.” for “percent.”
# MATIN [6] = assay: Post-emergence herbicidal action; format: in vivo, Matricaria inodora; conditions: assessed after about 3 weeks
# Experimental: as §2
# PHBPU [7] = assay: Post-emergence herbicidal action; format: in vivo, Pharbitis purpurea; conditions: 20 g/ha, assessed after about 3 weeks
# Experimental: as §2
# AMARE [8] = assay: Pre-emergence herbicidal action; format: in vivo, Amaranthus retroflexus; conditions: scored after 3 weeks
# Text: as §1
# VIOTR [9] = assay: Pre-emergence herbicidal action; format: in vivo, Viola tricolor; conditions: 80 g/ha, scored after 3 weeks
# Text: as §1
# STEME [10] = assay: Post-emergence herbicidal action; format: in vivo, Stellaria media; conditions: 5 g a.i./ha, comparative experiment
# Experimental: as §2, with “percent. In the experiments that follow, the herbicidal action of the compounds of the invention and that of the corresponding known racemic compounds closest from WO2012126932 and WO2018202535 were compared under the above-specified conditions by the pre-emergence and post-emergence method. The example numbers given in the tables relate to the compounds disclosed in the respective documents.” for “percent.”
# PHBPU [11] = assay: Pre-emergence herbicidal action; format: in vivo, Pharbitis purpurea; conditions: 80 g/ha, scored after 3 weeks
# Text: as §1
# AVEFA = assay: Pre-emergence herbicidal action; format: in vivo, Avena fatua
# Text: as §1, with “percent. In the experiments that follow, the herbicidal action of the compounds of the invention and that of the corresponding known racemic compounds closest from WO2012126932 and WO2018202535 were compared under the above-specified conditions by the pre-emergence and post-emergence method. The example numbers given in the tables relate to the compounds disclosed in the respective documents.” for “percent.”
# MATIN [12] = assay: Pre-emergence herbicidal action; format: in vivo, Matricaria inodora; conditions: for Pre-emergence action against MATIN: scored after 3 weeks
# Text: as §1, with “percent. In the experiments that follow, the herbicidal action of the compounds of the invention and that of the corresponding known racemic compounds closest from WO2012126932 and WO2018202535 were compared under the above-specified conditions by the pre-emergence and post-emergence method. The example numbers given in the tables relate to the compounds disclosed in the respective documents.” for “percent.”
# VIOTR [13] = assay: Post-emergence herbicidal action; format: in vivo, Viola tricolor; conditions: assessed after about 3 weeks
# Experimental: as §2, with “percent. In the experiments that follow, the herbicidal action of the compounds of the invention and that of the corresponding known racemic compounds closest from WO2012126932 and WO2018202535 were compared under the above-specified conditions by the pre-emergence and post-emergence method. The example numbers given in the tables relate to the compounds disclosed in the respective documents.” for “percent.”
# STEME [14] = assay: Pre-emergence herbicidal action; format: in vivo, Stellaria media; conditions: comparative experiment
# Text: as §1, with “percent. In the experiments that follow, the herbicidal action of the compounds of the invention and that of the corresponding known racemic compounds closest from WO2012126932 and WO2018202535 were compared under the above-specified conditions by the pre-emergence and post-emergence method. The example numbers given in the tables relate to the compounds disclosed in the respective documents.” for “percent.”
# SETVI [15] = assay: Post-emergence herbicidal action; format: in vivo, Setaria viridis; conditions: for Post-emergence action against SETVI: assessed after about 3 weeks
# Experimental: as §2, with “percent. In the experiments that follow, the herbicidal action of the compounds of the invention and that of the corresponding known racemic compounds closest from WO2012126932 and WO2018202535 were compared under the above-specified conditions by the pre-emergence and post-emergence method. The example numbers given in the tables relate to the compounds disclosed in the respective documents.” for “percent.”
# CYPES [16] = assay: Pre-emergence herbicidal action; format: in vivo, Cyperus esculentus; conditions: 20 g a.i./ha, comparative experiment
# Text: as §1, with “percent. In the experiments that follow, the herbicidal action of the compounds of the invention and that of the corresponding known racemic compounds closest from WO2012126932 and WO2018202535 were compared under the above-specified conditions by the pre-emergence and post-emergence method. The example numbers given in the tables relate to the compounds disclosed in the respective documents.” for “percent.”
# ALOMY = assay: Pre-emergence herbicidal action; format: in vivo, Alopecurus myosuroides
# Text: as §1, with “percent. In the experiments that follow, the herbicidal action of the compounds of the invention and that of the corresponding known racemic compounds closest from WO2012126932 and WO2018202535 were compared under the above-specified conditions by the pre-emergence and post-emergence method. The example numbers given in the tables relate to the compounds disclosed in the respective documents.” for “percent.”
# VERPE [17] = assay: Pre-emergence herbicidal action; format: in vivo, Veronica persica; conditions: for Herbicidal action against VERPE: comparative experiment; for Pre-emergence action against VERPE: scored after 3 weeks
# Text: as §1, with “percent. In the experiments that follow, the herbicidal action of the compounds of the invention and that of the corresponding known racemic compounds closest from WO2012126932 and WO2018202535 were compared under the above-specified conditions by the pre-emergence and post-emergence method. The example numbers given in the tables relate to the compounds disclosed in the respective documents.” for “percent.”
# ECHCG [18] = assay: Post-emergence herbicidal action; format: in vivo, Echinochloa crus-galli; conditions: assessed after about 3 weeks
# Experimental: as §2, with “percent. In the experiments that follow, the herbicidal action of the compounds of the invention and that of the corresponding known racemic compounds closest from WO2012126932 and WO2018202535 were compared under the above-specified conditions by the pre-emergence and post-emergence method. The example numbers given in the tables relate to the compounds disclosed in the respective documents.” for “percent.”
# [19] = 20 g a.i./ha, comparative experiment
# [20] = 5 g a.i./ha, comparative experiment
smiles,measurement,setting,value
"Cc1nnc(NC(=O)c2ccc(C(F)(F)F)c([S+](C)[O-])c2Cl)o1 (stereo in doubt) [Example I-5, 2-chloro-N-(5-methyl-1,3,4-oxadiazol-2-yl)-3-[(S)-methylsulfinyl]-4-(trifluoromethyl)benzamide]",Pre-emergence action against ECHCG,ECHCG [1]; 20 g/ha,100%
same,Pre-emergence action against ECHCG,ECHCG [1]; 80 g/ha,100%
same,Post-emergence action against AMARE,AMARE [2]; 5 g/ha,100%
same,Post-emergence action against AMARE,AMARE [2]; 20 g/ha,100%
same,Herbicidal action against POLCO,POLCO,80%
same,Herbicidal action against CYPES,CYPES [3],80%
same,Pre-emergence action against SETVI,SETVI [4]; 5 g/ha,80%
same,Herbicidal action against SETVI,SETVI [4]; [19],100%
same,Pre-emergence action against SETVI,SETVI [4]; 20 g/ha,100%
same,Pre-emergence action against SETVI,SETVI [4]; 80 g/ha,100%
same,Herbicidal action against VERPE,VERPE [5]; [20],40%
same,Post-emergence action against VERPE,"VERPE [5]; 20 g/ha, assessed after about 3 weeks",90%
same,Herbicidal action against ZEAMX,ZEAMX,40%
same,Post-emergence action against MATIN,MATIN [6]; 5 g/ha,80%
same,Post-emergence action against MATIN,MATIN [6]; 20 g/ha,90%
same,Post-emergence action against PHBPU,PHBPU [7],90%
same,Pre-emergence action against AMARE,AMARE [8]; 20 g/ha,90%
same,Pre-emergence action against AMARE,AMARE [8]; 80 g/ha,100%
same,Pre-emergence action against VIOTR,VIOTR [9],100%
same,Herbicidal action against STEME,STEME [10],80%
same,Pre-emergence action against PHBPU,PHBPU [11],100%
same,Herbicidal action against AVEFA,AVEFA; [19],90%
same,Pre-emergence action against AVEFA,"AVEFA; 80 g/ha, scored after 3 weeks",80%
same,Herbicidal action against MATIN,MATIN [12]; [19],90%
same,Pre-emergence action against MATIN,MATIN [12]; 20 g/ha,80%
same,Pre-emergence action against MATIN,MATIN [12]; 80 g/ha,100%
same,Post-emergence action against VIOTR,VIOTR [13]; 5 g/ha,100%
same,Post-emergence action against VIOTR,VIOTR [13]; 20 g/ha,100%
same,Herbicidal action against STEME,STEME [14]; 20 g a.i./ha,100%
same,Herbicidal action against STEME,STEME [14]; 80 g a.i./ha,100%
same,Herbicidal action against STEME,STEME [14]; 320 g a.i./ha,100%
same,Herbicidal action against SETVI,SETVI [15]; [20],100%
same,Post-emergence action against SETVI,SETVI [15]; 5 g/ha,80%
same,Post-emergence action against SETVI,SETVI [15]; 20 g/ha,100%
same,Herbicidal action against CYPES,CYPES [16],90%
same,Herbicidal action against ALOMY,ALOMY; [19],60%
same,Pre-emergence action against ALOMY,"ALOMY; 80 g/ha, scored after 3 weeks",80%
same,Herbicidal action against VERPE,VERPE [17]; 20 g a.i./ha,30%
same,Pre-emergence action against VERPE,VERPE [17]; 20 g/ha,80%
same,Herbicidal action against VERPE,VERPE [17]; 80 g a.i./ha,100%
same,Pre-emergence action against VERPE,VERPE [17]; 80 g/ha,100%
same,Post-emergence action against ECHCG,ECHCG [18]; 5 g/ha,90%
same,Post-emergence action against ECHCG,ECHCG [18]; 20 g/ha,100%
